From the NIST ThermoML archive (doi:10.1021/je049888n)

Tests used:
[1] = xn = mol fraction of the nth substance listed

C1CCNCC1 [piperidine] + O
surface tension liquid-gas [mN/m], [1]
Conditions | 293.15 K | 298.15 K | 303.15 K | 313.15 K | 323.15 K
x1 = 0.0076 | 57.25 | 56.85 | 56.45 | 55.56 | 54.62
x1 = 0.013 | 43.84 | 43.58 | 43.32 | 41.58 | 41.41
x1 = 0.0228 | 38.56 | 38.27 | 37.98 | 37.43 | 37.18
x1 = 0.0458 | 37.78 | 37.2 | 36.62 | 35.76 | 34.37
x1 = 0.092 | 35.44 | 34.99 | 34.54 | 33.69 | 32.61
x1 = 0.1542 | 34.34 | 34.02 | 33.7 | 32.67 | 31.8
x1 = 0.2672 | 33.9 | 33.39 | 32.88 | 32.1 | 31.26
x1 = 0.378 | 33.27 | 32.75 | 32.23 | 31.42 | 30.4
x1 = 0.5657 | 31.38 | 31.15 | 30.92 | 30.01 | 29.2
x1 = 0.7524 | 31.02 | 30.42 | 29.82 | 29.01 | 28.1
x1 = 1 | 30.11 | 29.56 | 29.09 | 27.9 | 27

O [water] + C1CCNC1
[1], x2 = 0
Conditions | surface tension liquid-gas [mN/m]
293.15 K | 72.7
298.15 K | 72.05
303.15 K | 71.28
313.15 K | 69.32
323.15 K | 67.88

C1CCNC1 [pyrrolidine]
Conditions | surface tension liquid-gas [mN/m]
293.15 K | 30.27
298.15 K | 29.75
303.15 K | 29.02
313.15 K | 27.87
323.15 K | 26.75

C1CCNCC1 [piperidine]
Conditions | surface tension liquid-gas [mN/m]
293.15 K | 30.11
298.15 K | 29.56
303.15 K | 29.09
313.15 K | 27.9
323.15 K | 27

O [water] + C1CCNCC1
[1], x2 = 0
Conditions | surface tension liquid-gas [mN/m]
293.15 K | 72.7
298.15 K | 72.05
303.15 K | 71.28
313.15 K | 69.32
323.15 K | 67.88

C1CCNC1 [pyrrolidine] + O
surface tension liquid-gas [mN/m], [1]
Conditions | 293.15 K | 298.15 K | 303.15 K | 313.15 K | 323.15 K
x1 = 0.0156 | 55.61 | 55.32 | 54.98 | 54.1 | 53.26
x1 = 0.0564 | 46.07 | 45.61 | 45.21 | 44.76 | 43.89
x1 = 0.1082 | 41.7 | 41.19 | 40.92 | 40.19 | 39.17
x1 = 0.1792 | 39.7 | 39.74 | 39 | 38.01 | 37.3
x1 = 0.3039 | 37.53 | 37.09 | 36.69 | 35.68 | 34.74
x1 = 0.4212 | 35.97 | 35.45 | 35.11 | 34.44 | 33.15
x1 = 0.5219 | 34.87 | 34.4 | 33.99 | 32.97 | 32.07
x1 = 0.6093 | 33.89 | 33.54 | 33.07 | 31.95 | 31.05
x1 = 0.6858 | 32.99 | 32.59 | 32.39 | 31.11 | 30.25
x1 = 0.7844 | 32.1 | 31.45 | 31.3 | 30.4 | 29.2
x1 = 0.9161 | 31.07 | 30.42 | 30.13 | 29.02 | 27.83
x1 = 1 | 30.27 | 29.75 | 29.02 | 27.87 | 26.75
